From US20240208956A1, “1,3,4-OXADIAZOLE THIOCARBONYL COMPOUNDS AS HISTONE DEACETYLASE 6 INHIBITOR, AND PHARMACEUTICAL COMPOSITION COMPRISING THE SAME” (CHONG KUN DANG PHARMACEUTICAL CORP., priority 2021, published 2024)

Key:
[1] = biological target: HDAC1 (Homo sapiens (Human), UniProt Q13547); assay: HDAC enzyme activity inhibition (in vitro), HDAC1 Fluorimetric Drug Discovery Assay Kit; type: biochemical; settings: samples at 100, 1000 and 10000 nM; 37° C. 60 minutes; fluorescence Ex 390 nm, Em 460 nm
Chain of HDAC1 (Q13547 whole entry): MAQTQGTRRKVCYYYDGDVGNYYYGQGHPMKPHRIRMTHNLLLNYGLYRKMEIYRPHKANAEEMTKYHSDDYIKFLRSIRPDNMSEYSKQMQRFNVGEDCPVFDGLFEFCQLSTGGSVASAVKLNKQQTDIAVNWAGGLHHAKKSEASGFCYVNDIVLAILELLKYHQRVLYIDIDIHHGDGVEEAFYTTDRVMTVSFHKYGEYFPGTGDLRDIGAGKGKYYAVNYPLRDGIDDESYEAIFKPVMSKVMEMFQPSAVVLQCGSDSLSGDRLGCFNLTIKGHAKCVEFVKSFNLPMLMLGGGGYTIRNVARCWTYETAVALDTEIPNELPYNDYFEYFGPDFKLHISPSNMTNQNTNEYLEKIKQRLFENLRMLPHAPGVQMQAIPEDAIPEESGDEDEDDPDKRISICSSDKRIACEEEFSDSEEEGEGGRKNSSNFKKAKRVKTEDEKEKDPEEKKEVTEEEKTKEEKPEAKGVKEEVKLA
Procedure: Experimental Example 1. Confirmation of HDAC Enzyme Activity Inhibition (In Vitro)
(§1) An HDAC enzyme inhibitory capacity of test material was measured by using HDAC1 Fluorimetric Drug Discovery Assay Kit (Enzolifesciences: BML-AK511) and HDAC6 human recombinant (Calbiochem: 382180). For a HDAC1 assay, samples were treated at a concentration of 100 nM, 1000 nM and 10000 nM. For an HDAC6 assay, samples were treated at a concentration of 0.1 nM, 1 nM, 10 nM, 100 nM and 1000 nM. After the sample treatment, a reaction was continued at 37° C. for 60 minutes, treated with a developer, and subjected to reaction at 37° C. for 30 minutes, after which fluorescence intensity (Ex 390 nm, Em 460 nm) was measured by using FlexStation3 (Molecular device). For final result values, each […] value was calculated with GraphPad Prism 4.0 program.

[2] = biological target: HDAC6 human recombinant (Homo sapiens (Human), UniProt Q9UBN7); assay: HDAC enzyme activity inhibition (in vitro), HDAC6 fluorimetric assay; type: biochemical; settings: samples at 0.1-1000 nM; 37° C. 60 minutes; fluorescence Ex 390 nm, Em 460 nm
Chain of HDAC6 human recombinant (Q9UBN7 whole entry): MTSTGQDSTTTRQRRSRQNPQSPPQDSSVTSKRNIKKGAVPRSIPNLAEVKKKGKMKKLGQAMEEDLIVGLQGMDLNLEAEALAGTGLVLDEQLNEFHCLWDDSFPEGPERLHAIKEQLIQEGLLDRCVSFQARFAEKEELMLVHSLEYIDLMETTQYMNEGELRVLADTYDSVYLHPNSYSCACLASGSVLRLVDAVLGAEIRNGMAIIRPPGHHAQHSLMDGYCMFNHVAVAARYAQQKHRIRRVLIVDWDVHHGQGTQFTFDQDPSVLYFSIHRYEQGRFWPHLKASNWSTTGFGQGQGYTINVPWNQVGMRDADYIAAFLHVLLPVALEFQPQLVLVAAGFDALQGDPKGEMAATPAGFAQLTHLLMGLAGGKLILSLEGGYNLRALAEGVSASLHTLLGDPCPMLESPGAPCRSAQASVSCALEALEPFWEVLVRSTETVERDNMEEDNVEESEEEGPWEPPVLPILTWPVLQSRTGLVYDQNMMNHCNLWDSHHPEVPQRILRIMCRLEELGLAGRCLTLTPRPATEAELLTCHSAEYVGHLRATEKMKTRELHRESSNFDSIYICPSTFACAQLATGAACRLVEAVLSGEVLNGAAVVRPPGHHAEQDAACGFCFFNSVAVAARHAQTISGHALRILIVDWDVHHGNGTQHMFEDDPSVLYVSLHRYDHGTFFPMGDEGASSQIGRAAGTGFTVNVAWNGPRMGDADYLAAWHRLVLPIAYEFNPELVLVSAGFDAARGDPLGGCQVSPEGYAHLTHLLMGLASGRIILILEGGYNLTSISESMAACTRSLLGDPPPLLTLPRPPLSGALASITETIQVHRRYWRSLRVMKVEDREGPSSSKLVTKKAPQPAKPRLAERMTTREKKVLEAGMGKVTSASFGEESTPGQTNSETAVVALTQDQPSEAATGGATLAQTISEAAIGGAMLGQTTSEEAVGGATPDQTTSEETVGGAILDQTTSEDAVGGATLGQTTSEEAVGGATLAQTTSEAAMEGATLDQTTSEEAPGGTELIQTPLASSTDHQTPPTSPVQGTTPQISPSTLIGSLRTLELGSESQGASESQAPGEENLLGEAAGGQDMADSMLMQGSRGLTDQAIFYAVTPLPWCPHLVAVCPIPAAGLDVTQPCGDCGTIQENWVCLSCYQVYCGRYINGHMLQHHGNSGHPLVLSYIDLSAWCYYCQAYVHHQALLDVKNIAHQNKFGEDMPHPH
Procedure: Confirmation of HDAC Enzyme Activity Inhibition (In Vitro)
as §1

SMILES | IC50 [1] [nM] | IC50 [2] [nM]
Fc1cc(-c2nnc(C(F)F)o2)ccc1CN(C(=S)N1CCOCC1)c1ccccc1 [Compound 1, N-(4-(5-(difluoromethyl)-1,3,4-oxadiazol-2-yl)-2-fluorobenzyl)-N-phenylmorpholin-4-carbothioamide] | > 10000 | 
FC(F)c1nnc(-c2ccc(CN(C(=S)N3CCOCC3)c3ccccc3)nc2)o1 [Compound 2, N-((5-(5-(difluoromethyl)-1,3,4-oxadiazol-2-yl)pyridin-2-yl)methyl)-N-phenylmorpholin-4-carbothioamide] | > 10000 | 66
FC(F)c1nnc(-c2ccc(CN(C(=S)N3CCOCC3)c3ccccc3)cc2)o1 [Compound 3, N-(4-(5-(difluoromethyl)-1,3,4-oxadiazol-2-yl)benzyl)-N-phenylmorpholin-4-carbothioamide] | > 10000 | 37
CN1CCN(C(=S)N(Cc2ccc(-c3nnc(C(F)F)o3)cc2)c2ccccc2)CC1 [Compound 4, N-(4-(5-(difluoromethyl)-1,3,4-oxadiazol-2-yl)benzyl)-4-methyl-N-phenylpiperazin-1-carbothioamide] | > 10000 | 37
FC(F)c1nnc(-c2ccc(CN(C(=S)N3CCN(C4COC4)CC3)c3ccccc3)cc2)o1 [Compound 5, N-(4-(5-(difluoromethyl)-1,3,4-oxadiazol-2-yl)benzyl)-4-(oxetan-3-yl)-N-phenylpiperazin-1-carbothioamide] | > 10000 | 37
O=S1(=O)CCN(C(=S)N(Cc2ccc(-c3nnc(C(F)F)o3)cn2)c2ccccc2)CC1 [Compound 6, N-((5-(5-(difluoromethyl)-1,3,4-oxadiazol-2-yl)pyridin-2-yl)methyl)-N-phenylthiomorpholin-4-carbothioamide 1,1-dioxide] | > 10000 | 31
CN1CCN(C(=S)N(Cc2ccc(-c3nnc(C(F)F)o3)cc2F)c2ccccc2)CC1 [Compound 7, N-(4-(5-(difluoromethyl)-1,3,4-oxadiazol-2-yl)-2-fluorobenzyl)-4-methyl-N-phenylpiperazin-1-carbothioamide] | > 10000 | 
CN1CCC2(CC1)CC(C(=S)N(Cc1ccc(-c3nnc(C(F)F)o3)cc1F)c1ccccc1)C2 [Compound 8, N-(4-(5-(difluoromethyl)-1,3,4-oxadiazol-2-yl)-2-fluorobenzyl)-7-methyl-N-phenyl-7-azaspiro[3.5]nonan-2-carbothioamide] | > 10000 | 75
Fc1cc(-c2nnc(C(F)F)o2)ccc1CN(C(=S)c1ccncc1)c1ccccc1 [Compound 9, N-(4-(5-(difluoromethyl)-1,3,4-oxadiazol-2-yl)-2-fluorobenzyl)-N-phenylpyridin-4-carbothioamide] | > 10000 | 138
CN1CC2(C1)CN(C(=S)N(Cc1ccc(-c3nnc(C(F)F)o3)cc1F)c1ccccc1)C2 [Compound 10, N-(4-(5-(difluoromethyl)-1,3,4-oxadiazol-2-yl)-2-fluorobenzyl)-6-methyl-N-phenyl-2,6-diazaspiro[3.3]heptan-2-carbothioamide] | > 10000 | 45
Fc1cc(-c2nnc(C(F)F)o2)ccc1CN(C(=S)N1CC2(C1)CN(C1COC1)C2)c1ccccc1 [Compound 11, N-(4-(5-(difluoromethyl)-1,3,4-oxadiazol-2-yl)-2-fluorobenzyl)-6-(oxetan-3-yl)-N-phenyl-2,6-diazaspiro[3.3]heptan-2-carbothioamide] | > 10000 | 50
CN1CC2(C1)CN(C(=S)N(Cc1ccc(-c3nnc(C(F)F)o3)cc1F)c1ccc(F)cc1F)C2 [Compound 12, N-(4-(5-(difluoromethyl)-1,3,4-oxadiazol-2-yl)-2-fluorobenzyl)-N-(2,4-difluorophenyl)-6-methyl-2,6-diazaspiro[3.3]heptan-2-carbothioamide] | > 10000 | 135
CN1CC2(C1)CN(C(=S)N(Cc1ccc(-c3nnc(C(F)F)o3)cc1F)c1ccc(F)c(F)c1)C2 [Compound 13, N-(4-(5-(difluoromethyl)-1,3,4-oxadiazol-2-yl)-2-fluorobenzyl)-N-(3,4-difluorophenyl)-6-methyl-2,6-diazaspiro[3.3]heptan-2-carbothioamide] | > 10000 | 76
CN1CC2(C1)CN(C(=S)N(Cc1ccc(-c3nnc(C(F)F)o3)cc1)c1cccc(F)c1)C2 [Compound 14, N-(4-(5-(difluoromethyl)-1,3,4-oxadiazol-2-yl)benzyl)-N-(3-fluorophenyl)-6-methyl-2,6-diazaspiro[3.3]heptan-2-carbothioamide] | > 10000 | 39
Fc1cccc(N(Cc2ccc(-c3nnc(C(F)F)o3)cc2)C(=S)N2CC3(C2)CN(C2COC2)C3)c1 [Compound 15, N-(4-(5-(difluoromethyl)-1,3,4-oxadiazol-2-yl)benzyl)-N-(3-fluorophenyl)-6-(oxetan-3-yl)-2,6-diazaspiro[3.3]heptan-2-carbothioamide] | > 10000 | 54
CC(C)N1CC2(CN(C(=S)N(Cc3ccc(-c4nnc(C(F)F)o4)cc3)c3cccc(F)c3)C2)C1 [Compound 16, N-(4-(5-(difluoromethyl)-1,3,4-oxadiazol-2-yl)benzyl)-N-(3-fluorophenyl)-6-isopropyl-2,6-diazaspiro[3.3]heptan-2-carbothioamide] | > 10000 | 63
CN1CC2(C1)CN(C(=S)N(Cc1ccc(-c3nnc(C(F)F)o3)cc1F)c1ccc(F)cc1)C2 [Compound 17, N-(4-(5-(difluoromethyl)-1,3,4-oxadiazol-2-yl)-2-fluorobenzyl)-N-(4-fluorophenyl)-6-methyl-2,6-diazaspiro[3.3]heptan-2-carbothioamide] | > 10000 | 41
CC(C)N1CC2(CN(C(=S)N(Cc3ccc(-c4nnc(C(F)F)o4)cc3F)c3ccc(F)cc3)C2)C1 [Compound 18, N-(4-(5-(difluoromethyl)-1,3,4-oxadiazol-2-yl)-2-fluorobenzyl)-N-(4-fluorophenyl)-6-isopropyl-2,6-diazaspiro[3.3]heptan-2-carbothioamide] | > 10000 | 61
Fc1ccc(N(Cc2ccc(-c3nnc(C(F)F)o3)cc2F)C(=S)N2CC3(C2)CN(C2COC2)C3)cc1 [Compound 19, N-(4-(5-(difluoromethyl)-1,3,4-oxadiazol-2-yl)-2-fluorobenzyl)-N-(4-fluorophenyl)-6-(oxetan-3-yl)-2,6-diazaspiro[3.3]heptan-2-carbothioamide] | > 10000 | 54
Fc1ccc(N(Cc2ccc(-c3nnc(C(F)F)o3)cc2F)C(=S)N2CC3(COC3)C2)cc1F [Compound 35, N-(4-(5-(difluoromethyl)-1,3,4-oxadiazol-2-yl)-2-fluorobenzyl)-N-(3,4-difluorophenyl)-2-oxa-6-azaspiro[3.3]heptan-6-carbothioamide] | > 10000 | 
CN1C[C@@H]2C[C@H]1CN2C(=S)N(Cc1ccc(-c2nnc(C(F)F)o2)cc1F)c1ccc(F)c(F)c1 [Compound 42, (1S,4S)—N-(4-(5-(difluoromethyl)-1,3,4-oxadiazol-2-yl)-2-fluorobenzyl)-N-(3,4-difluorophenyl)-5-methyl-2,5-diazabicyclo[2.2.1]heptan-2-carbothioamide] | > 10000 | 
